Assay results published in article PMC7023430, “4-Aminobenzoic Acid Derivatives: Converting Folate Precursor to Antimicrobial and Cytotoxic Agents” (Biomolecules, 2019).
Converted amounts (≈) assume the structure as drawn. Read-outs that look alike come from different tables or passages of the source.

Tests used:
[1] = tested on: methicillin-resistant Staphylococcus aureus ATCC 43300, CCM 4750 (MRSA); assay: Antibacterial microdilution broth method, MRSA; format: cell-based; details: Staphylococcus aureus
[2] = tested on: Aspergillus fumigatus 231; assay: Antifungal microdilution broth method, A. fumigatus; format: cell-based
In short: (§1)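 EUCAST-based broth microdilution with slight modifications: compounds dissolved in DMSO and diluted twofold in RPMI-1640 with L-glutamine, 2% glucose, MOPS-buffered to pH 7.0. MIC endpoints were read visually, in duplicate, valid only if parallel MICs differed by no more than one dilution step.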

Candida glabrata 20/I = assay: Antifungal microdilution broth method, C. glabrata; format: cell-based; details: Nakaseomyces glabratus
In short: as §1

Trichosporon asahii 1188 = assay: Antifungal microdilution broth method, T. asahii; format: cell-based
In short: as §1

Candida krusei E28 = assay: Antifungal microdilution broth method, C. krusei; format: cell-based; details: Pichia kudriavzevii
In short: as §1

[3] = tested on: Mycobacterium avium 330/88; assay: Antimycobacterial micromethod in Šula's medium, M. avium; format: cell-based
Candida tropicalis 156 = assay: Antifungal microdilution broth method, C. tropicalis; format: cell-based
In short: as §1

[4] = tested on: Lichtheimia corymbifera 272; assay: Antifungal microdilution broth method, L. corymbifera; format: cell-based
In short: as §1

[5] = tested on: ESBL-positive Klebsiella pneumoniae J 14368/08
[6] = tested on: M. kansasii 6509/96 (clinical isolate); assay: Antimycobacterial micromethod in Šula's medium, M. kansasii 6509/96; format: cell-based; details: Mycobacterium kansasii
[7] = tested on: Mycobacterium kansasii 235/80; assay: Antimycobacterial micromethod in Šula's medium, M. kansasii 235/80; format: cell-based
[8] = tested on: Candida albicans ATCC 44859; assay: Antifungal microdilution broth method, C. albicans; format: cell-based
In short: as §1

[9] = tested on: Trichophyton interdigitale 445; assay: Antifungal microdilution broth method, T. interdigitale; format: cell-based
In short: as §1

[10] = tested on: Enterococcus faecalis ATCC 29212, CCM 4224; assay: Antibacterial microdilution broth method, E. faecalis; format: cell-based; details: Enterococcus faecalis
[11] = tested on: Escherichia coli ATCC 25922, CCM 3954; assay: Antibacterial microdilution broth method, E. coli; format: cell-based; details: Escherichia coli
[12] = tested on: Klebsiella pneumoniae D 11750/08; assay: Antibacterial microdilution broth method, K. pneumoniae; details: K. pneumoniae D 11750/08; for MIC KP 24 h: 24 h incubation; for MIC KP 48 h: 48 h incubation
[13] = tested on: Staphylococcus aureus ATCC 29213, CCM 4223; assay: Antibacterial microdilution broth method, S. aureus; format: cell-based
[14] = tested on: Mycobacterium tuberculosis H37Rv (331/88); assay: Antimycobacterial micromethod in Šula's medium, M. tuberculosis; format: cell-based
[15] = 24 h incubation, read-out: MIC MRSA 24 h
[16] = 48 h incubation, read-out: MIC MRSA 48 h
[17] = 330/88, 336 h, 14 days incubation at 37 °C, read-out: MIC M. avium 330/88 14 d
[18] = 330/88, 504 h, 21 days incubation at 37 °C, read-out: MIC M. avium 330/88 21 d
[19] = 168 h, 7 days incubation at 37 °C, read-out: MIC M. kansasii 6509/96 7 d
[20] = 336 h, 14 days incubation at 37 °C, read-out: MIC M. kansasii 6509/96 14 d
[21] = 504 h, 21 days incubation at 37 °C, read-out: MIC M. kansasii 6509/96 21 d
[22] = 235/80, 168 h, 7 days incubation at 37 °C, read-out: MIC M. kansasii 235/80 7 d
[23] = 235/80, 336 h, 14 days incubation at 37 °C, read-out: MIC M. kansasii 235/80 14 d
[24] = 235/80, 504 h, 21 days incubation at 37 °C, read-out: MIC M. kansasii 235/80 21 d
[25] = ATCC44859, 24 h, read-out: MIC CA 24 h
[26] = ATCC44859, 48 h, read-out: MIC CA 48 h
[27] = 24 h incubation, read-out: MIC EF 24 h
[28] = 48 h incubation, read-out: MIC EF 48 h
[29] = 24 h incubation, read-out: MIC EC 24 h
[30] = 48 h incubation, read-out: MIC EC 48 h
[31] = 24 h incubation, read-out: MIC SA 24 h
[32] = 48 h incubation, read-out: MIC SA 48 h
[33] = 336 h, 14 days incubation at 37 °C, read-out: MIC Mtb. 331/88 14 d
[34] = 504 h, 21 days incubation at 37 °C, read-out: MIC Mtb. 331/88 21 d

Row | Structure (SMILES) | MIC [1, 15] | MIC [1, 16] | MIC ([2]; 24 h, read-out: MIC AF 24 h) | MIC ([2]; 48 h, read-out: MIC AF 48 h) | MIC (Candida glabrata 20/I; 24 h, read-out: MIC CG 24 h) | MIC (Candida glabrata 20/I; 48 h, read-out: MIC CG 48 h) | MIC (Trichosporon asahii 1188; 24 h, read-out: MIC TA 24 h) | MIC (Trichosporon asahii 1188; 48 h, read-out: MIC TA 48 h) | MIC (Candida krusei E28; 24 h, read-out: MIC CK 24 h) | MIC (Candida krusei E28; 48 h, read-out: MIC CK 48 h) | MIC [3, 17] | MIC [3, 18] | MIC (Candida tropicalis 156; 24 h, read-out: MIC CT 24 h) | MIC (Candida tropicalis 156; 48 h, read-out: MIC CT 48 h) | MIC ([4]; 24 h, read-out: MIC LC 24 h) | MIC ([4]; 48 h, read-out: MIC LC 48 h) | MIC KP-E 24 h [5] | MIC KP-E 48 h [5] | MIC [6, 19] | MIC [6, 20] | also measured
1 | COc1ccc(O)c(C=Nc2ccc(C(=O)O)cc2)c1 [1h, 4-[(2-Hydroxy-5-methoxybenzylidene)amino]benzoic acid] | > 500 µM | > 500 µM | > 500 µM | > 500 µM | 250 µM (≈ 67.8 µg/mL) | 250 µM (≈ 67.8 µg/mL) | 500 µM (≈ 136 µg/mL) | 500 µM (≈ 136 µg/mL) | 500 µM (≈ 136 µg/mL) | 500 µM (≈ 136 µg/mL) | 1000 µM (≈ 271 µg/mL) | 1000 µM (≈ 271 µg/mL) | 500 µM (≈ 136 µg/mL) | 500 µM (≈ 136 µg/mL) | > 500 µM | > 500 µM | >500 µM | >500 µM | 500 µM (≈ 136 µg/mL) | 500 µM (≈ 136 µg/mL) | MIC [6, 21]: 500 µM (≈ 136 µg/mL); MIC [7, 22]: 500 µM (≈ 136 µg/mL); MIC [7, 23]: 500 µM (≈ 136 µg/mL); MIC [7, 24]: 500 µM (≈ 136 µg/mL); MIC [8, 25]: 250 µM (≈ 67.8 µg/mL); MIC [8, 26]: 250 µM (≈ 67.8 µg/mL); MIC ([9]; 72 h, read-out: MIC TI 72 h): > 500 µM; MIC ([9]; 120 h, read-out: MIC TI 120 h): > 500 µM; MIC [10, 27]: > 500 µM; MIC [10, 28]: > 500 µM; MIC [11, 29]: > 500 µM; MIC [11, 30]: > 500 µM; MIC KP 24 h [12]: >500 µM; MIC KP 48 h [12]: >500 µM; MIC [13, 31]: > 500 µM; MIC [13, 32]: > 500 µM; MIC [14, 33]: 250 µM (≈ 67.8 µg/mL); MIC [14, 34]: 500 µM (≈ 136 µg/mL)
2 | CC(C)(C)c1ccc(O)c(C=Nc2ccc(C(=O)O)cc2)c1 [1j, 4-{[5-(Tert-butyl)-2-hydroxybenzylidene]amino}benzoic acid] | > 500 µM | > 500 µM | > 500 µM | > 500 µM | > 500 µM | > 500 µM | > 500 µM | > 500 µM | > 500 µM | > 500 µM | 1000 µM (≈ 297 µg/mL) | > 1000 µM | > 500 µM | > 500 µM | > 500 µM | > 500 µM | >500 µM | >500 µM | 250 µM (≈ 74.3 µg/mL) | 250 µM (≈ 74.3 µg/mL) | MIC [6, 21]: 500 µM (≈ 149 µg/mL); MIC [7, 22]: 125 µM (≈ 37.2 µg/mL); MIC [7, 23]: 125 µM (≈ 37.2 µg/mL); MIC [7, 24]: 250 µM (≈ 74.3 µg/mL); MIC [8, 25]: > 500 µM; MIC [8, 26]: > 500 µM; MIC ([9]; 72 h, read-out: MIC TI 72 h): > 500 µM; MIC ([9]; 120 h, read-out: MIC TI 120 h): > 500 µM; MIC [10, 27]: > 500 µM; MIC [10, 28]: > 500 µM; MIC [11, 29]: > 500 µM; MIC [11, 30]: > 500 µM; MIC KP 24 h [12]: >500 µM; MIC KP 48 h [12]: >500 µM; MIC [13, 31]: > 500 µM; MIC [13, 32]: > 500 µM; MIC [14, 33]: 250 µM (≈ 74.3 µg/mL); MIC [14, 34]: 250 µM (≈ 74.3 µg/mL)
3 | O=C(O)c1ccc(N=Cc2c(O)cccc2Cl)cc1 [1k, 4-[(2-Chloro-6-hydroxybenzylidene)amino]benzoic acid] | > 500 µM | > 500 µM | > 125 µM | > 125 µM | 125 µM (≈ 34.5 µg/mL) | 125 µM (≈ 34.5 µg/mL) | 125 µM (≈ 34.5 µg/mL) | > 125 µM | 125 µM (≈ 34.5 µg/mL) | 250 µM (≈ 68.9 µg/mL) | 500 µM (≈ 138 µg/mL) | 1000 µM (≈ 276 µg/mL) | 62.5 µM (≈ 17.2 µg/mL) | 125 µM (≈ 34.5 µg/mL) | > 125 µM | > 125 µM | >500 µM | >500 µM | 250 µM (≈ 68.9 µg/mL) | 250 µM (≈ 68.9 µg/mL) | MIC [6, 21]: 500 µM (≈ 138 µg/mL); MIC [7, 22]: 250 µM (≈ 68.9 µg/mL); MIC [7, 23]: 500 µM (≈ 138 µg/mL); MIC [7, 24]: 500 µM (≈ 138 µg/mL); MIC [8, 25]: 125 µM (≈ 34.5 µg/mL); MIC [8, 26]: 125 µM (≈ 34.5 µg/mL); MIC ([9]; 72 h, read-out: MIC TI 72 h): 125 µM (≈ 34.5 µg/mL); MIC ([9]; 120 h, read-out: MIC TI 120 h): 125 µM (≈ 34.5 µg/mL); MIC [10, 27]: > 500 µM; MIC [10, 28]: > 500 µM; MIC [11, 29]: > 500 µM; MIC [11, 30]: > 500 µM; MIC KP 24 h [12]: >500 µM; MIC KP 48 h [12]: >500 µM; MIC [13, 31]: > 500 µM; MIC [13, 32]: > 500 µM; MIC [14, 33]: 250 µM (≈ 68.9 µg/mL); MIC [14, 34]: 500 µM (≈ 138 µg/mL)
